Experimental data reported in patent publication US12012412B2, “Solid forms of pyrazolo[3,4-d]pyrimidine compounds” (Pfizer Inc., priority 2021, dated 2024).
≈ marks a conversion by molar mass, not a printed value. Read-outs that look alike come from different tables or passages of the source.

How the values were obtained:
Format in all cases: physicochemical
[1] = VH-XRPD analysis of Solid Form B
Procedure: VH-XRPD analysis was carried out on a Philips X'Pert Pro Multipurpose diffractometer equipped with a humidity chamber. The samples were scanned between 4 and 35.99°2θ using Cu K radiation (α1λ=1.54060 Å; α2=1.54443 Å; β=1.39225 Å; α1:α2 ratio=0.5) running in Bragg-Brentano geometry (step size 0.008°2θ) using 40 kV/40 mA generator settings. Variable humidity XRPD was carried out using the following method: A diffractogram was collected once each targeted % RH was reached and after the reported time had elapsed (Table 14 below). After 20 hours at 2% RH, some P2O5 was introduced within the stage chamber with the aim of further dry the environment. The sample was kept at these conditions for further 16 hours, during which a diffractogram was collected ever hour.

[2] = VT-XRPD analysis of Solid Form B
Procedure: VT-XRPD analysis was carried out on a Philips X'Pert Pro Multipurpose diffractometer equipped with a temperature chamber. The samples were scanned between 4 and 35.99°2θ using Cu K radiation (α1λ=1.54060 Å; α2=1.54443 Å; β=1.39225 Å; α1:α2 ratio=0.5) running in Bragg-Brentano geometry (step size 0.008°2θ) using 40 kV/40 mA generator settings. Solid Form B was analyzed by VT-XRPD to assess changes in form upon heating. The sample was heated at 10° C./min and diffraction pattern collected at various temperatures (based on TG/DSC data).

[3] = Dynamic vapour sorption (DVS) assessment of Solid Form B
[4] = Thermodynamic solubility assessment of Solid Form B; details: for solubility thermodynamic at 24 h: thermodynamic from solid; for solubility thermodynamic at 24 h / XRPD Pattern of residual solid: 24 hours
[5] = 7-day stability assessment of Solid Form B; details: 7 days; for HPLC purity (% rel. Area): input purity 100%
Procedure: 15 mg of Solid Form B was weighed into 3×1.5 mL vials. • One vial was left uncapped, placed inside a scintillation vial and stored at ambient conditions (ca. 20° C.). • One vial was left uncapped and placed inside a scintillation vial. This was placed in a stability oven at 40° C./75% RH. • One vial was capped and placed inside a scintillation vial. This was placed inside an oven at 80° C. After 7 days the samples were removed from their respective conditions, analyzed by XRPD and submitted for HPLC analysis.

XRPD (form at variable humidity) ([1]; 2% RH, 0.5 hours): Solid Form B
XRPD (form at variable humidity) ([1]; 2% RH, 20 hours): Solid Form B
XRPD (form at variable humidity) ([1]; 10% RH, 1 hour): Solid Form B
XRPD (form at variable humidity) ([1]; 40% RH, 0 hours (start)): Solid Form B
XRPD (form at variable humidity) ([1]; 40% RH, 0.5 hours): Solid Form B
XRPD (form at variable humidity) ([1]; 90% RH, 0.5 hours): Solid Form B
Change in form under variable humidity (VH-XRPD) ([1]; variable % RH, down to 2% RH and with P2O5): no change in form
XRPD (form observed on heating) ([2]; 30 °C, hold 0 mins (last step, after 135 °C)): Solid Form A
XRPD (form observed on heating) ([2]; 30 °C, hold 0 mins (start), heated at 10 °C/min): Solid Form B
XRPD (form observed on heating) ([2]; 85 °C, hold 0 mins): Solid Form C
XRPD (form observed on heating) ([2]; 85 °C, hold 5 mins): Solid Form C
Solid form observed upon heating (VT-XRPD) ([2]; 130° C.): mixture of Solid Form A and C
XRPD (form observed on heating) ([2]; 130 °C, hold 0 mins): Solid Form A/C
Solid form observed upon heating (VT-XRPD) ([2]; 135° C.): consistent with Solid Form A
XRPD (form observed on heating) ([2]; 135 °C, hold 0 mins): Solid Form A
XRPD (form observed on heating) ([2]; 135 °C, hold 10 mins): Solid Form A
Solid form observed upon heating (VT-XRPD) ([2]; heated to 85° C., 10° C./min): Solid Form C
Uptake (DVS) ([3]; at 80% RH): 4.3 wt. %
Mass loss on de-sorption/uptake on sorption (DVS) ([3]; between 0 and 10% RH): ca. 2.6 wt. %
Mass loss on de-sorption/uptake on sorption (DVS), water equivalents ([3]; between 0 and 10% RH): 0.6 eq. water
Uptake (DVS) ([3]; between 40 and 80% RH, first sorption cycle): 0.2 wt. %
Solid form after solubility test (XRPD) ([4]; across the pH range, 25° C.): retained
solubility thermodynamic at 24 h ([4]; aqueous buffer, pH 4.5 buffer, 25° C., read-out: HPLC conc. (mg/mL), thermodynamic solubility): 162 mg/mL (≈ 411 mM)
solubility thermodynamic at 24 h ([4]; aqueous buffer, pH 6.8 buffer, 25° C., read-out: HPLC conc. (mg/mL), thermodynamic solubility): 21.8 mg/mL (≈ 55.1 mM)
solubility thermodynamic at 24 h ([4]; buffer, aqueous buffer, pH 4.5, 25° C., read-out: Thermodynamic solubility): > 150 mg/mL
XRPD Pattern of residual solid ([4]; pH 1.2 buffer, 25° C.): Solid Form B
XRPD Pattern of residual solid ([4]; pH 4.5 buffer, 25° C.): Solid Form B
XRPD Pattern of residual solid ([4]; pH 6.8 buffer, 25° C.): Solid Form B
solubility thermodynamic at 24 h ([4]; simulated gastric fluid, pH 1.2 buffer, 25° C., read-out: HPLC conc. (mg/mL), thermodynamic solubility): 46.7 mg/mL (≈ 118 mM)
Solid form after storage (XRPD) ([5]; 40° C./75% RH): retained
XRPD (form after storage) ([5]; 40° C./75% RH): Solid Form B
HPLC purity (% rel. Area) ([5]; 40° C./75% RH): 100 % rel. Area
HPLC purity (% rel. Area) ([5]; 80° C.): 100 % rel. Area
XRPD (form after storage) ([5]; Ambient Light): Solid Form B
HPLC purity (% rel. Area) ([5]; Ambient Light): 100 % rel. Area
Solid form after storage (XRPD) ([5]; ambient temperature (ca. 20° C.)): retained
Purity change (HPLC) ([5]; ambient, 40° C./75% RH and 80° C.): no drop in purity
Structure (SMILES): C[C@@H]1CN(Cc2ncccn2)C[C@H]1c1nc2c(cnn2C2CCOCC2)c(=O)[nH]1 [Solid Form B, 6-((3S,4S)-4-methyl-1-(pyrimidin-2-ylmethyl)pyrrolidin-3-yl)-1-(tetrahydro-2H-pyran-4-yl)-1,5-dihydro-4H-pyrazolo[3,4-d]pyrimidin-4-one]
XRPD form after DVS analysis ([3]; post DVS): consistent with Solid Form B with traces of Solid Form C
Solid form after storage (XRPD) ([5]; 80° C.): converted to a mixture of Solid Form A and Solid Form C
